Results as given in the supplement of paper PMC5844555.

How the values were obtained:
Experiment in all cases: 3' UTR reporter interaction score (median-centred robust z-score of log2 firefly/Renilla activity); higher = less repression of the 3' UTR reporter
Conditions in all cases: HEK293T; 48 h
MYT1L = system: MYT1L
Procedure, shortened: (§1)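 A firefly luc2P reporter carrying the gene's 3' UTR (100 ng), Renilla pRL-TK control (20 ng) and miRNA mimic (2.5 pmol) were co-transfected with DharmaFECT Duo into HEK293T cells plated at 10,000/well in 96-well plates. Luciferase activities were read 48 h post-transfection. The interaction score is the log firefly/Renilla ratio as a per-plate robust z-score from median and median absolute deviation, median-centred per miRNA, and more negative indicates interaction. Values are averages of at least two independent screens.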

NOTCH1 = system: NOTCH1
Procedure, shortened: as §1

HRAS = system: HRAS
Procedure, shortened: as §1

RB1 = system: RB1
Procedure, shortened: as §1

ZEB2 = system: ZEB2
Procedure, shortened: as §1

PHF6 = system: PHF6
Procedure, shortened: as §1

TP53 = system: TP53
Procedure, shortened: as §1

EZH2 = system: EZH2
Procedure, shortened: as §1

BRCA2 = system: BRCA2
Procedure, shortened: as §1

FBXW7 = system: FBXW7
Procedure, shortened: as §1

MYC = system: MYC
Procedure, shortened: as §1

PHOX2B = system: PHOX2B
Procedure, shortened: as §1

MYCN = system: MYCN
Procedure, shortened: as §1

MYB = system: MYB
Procedure, shortened: as §1

Sequence: UCGUGCAUCCCUUUAGAGUGUU
- 3' UTR reporter interaction score (MYT1L): -0.28
- 3' UTR reporter interaction score (NOTCH1): -0.139
- 3' UTR reporter interaction score (HRAS): -0.817
- 3' UTR reporter interaction score (RB1): 1.71
- 3' UTR reporter interaction score (ZEB2): -1.93
- 3' UTR reporter interaction score (PHF6): 2.24
- 3' UTR reporter interaction score (TP53): -0.886
- 3' UTR reporter interaction score (EZH2): 0.153
- 3' UTR reporter interaction score (BRCA2): 0.369
- 3' UTR reporter interaction score (FBXW7): 0.538
- 3' UTR reporter interaction score (MYC): -0.38
- 3' UTR reporter interaction score (PHOX2B): -0.719
- 3' UTR reporter interaction score (MYCN): 1.34
- 3' UTR reporter interaction score (MYB): -1.1

Sequence: UGUCACUCGGCUCGGCCCACUAC
- 3' UTR reporter interaction score (MYT1L): 0.664
- 3' UTR reporter interaction score (NOTCH1): 0.551
- 3' UTR reporter interaction score (HRAS): -0.561
- 3' UTR reporter interaction score (RB1): -0.766
- 3' UTR reporter interaction score (ZEB2): -1.79
- 3' UTR reporter interaction score (PHF6): -0.284
- 3' UTR reporter interaction score (TP53): 0.457
- 3' UTR reporter interaction score (EZH2): 0.621
- 3' UTR reporter interaction score (BRCA2): 1.08
- 3' UTR reporter interaction score (FBXW7): 0.218
- 3' UTR reporter interaction score (MYC): -0.146
- 3' UTR reporter interaction score (PHOX2B): -0.663
- 3' UTR reporter interaction score (MYCN): 0.184
- 3' UTR reporter interaction score (MYB): 0.0813

Sequence: AAUAUUAUACAGUCAACCUCU
- 3' UTR reporter interaction score (MYT1L): 0
- 3' UTR reporter interaction score (NOTCH1): 3.57
- 3' UTR reporter interaction score (HRAS): -0.762
- 3' UTR reporter interaction score (RB1): -1.29
- 3' UTR reporter interaction score (ZEB2): 0.391
- 3' UTR reporter interaction score (PHF6): -1.02
- 3' UTR reporter interaction score (TP53): 0.359
- 3' UTR reporter interaction score (EZH2): -0.324
- 3' UTR reporter interaction score (BRCA2): -1.63
- 3' UTR reporter interaction score (FBXW7): 0.854
- 3' UTR reporter interaction score (MYC): 0.0661
- 3' UTR reporter interaction score (PHOX2B): 0.408
- 3' UTR reporter interaction score (MYCN): 1.48
- 3' UTR reporter interaction score (MYB): -0.218

Sequence: UCCGAGCCUGGGUCUCCCUCU
- 3' UTR reporter interaction score (MYT1L): 1.66
- 3' UTR reporter interaction score (NOTCH1): 0.141
- 3' UTR reporter interaction score (HRAS): -0.0807
- 3' UTR reporter interaction score (RB1): 0.559
- 3' UTR reporter interaction score (ZEB2): -0.318
- 3' UTR reporter interaction score (PHF6): -0.194
- 3' UTR reporter interaction score (TP53): 0.107
- 3' UTR reporter interaction score (EZH2): 0.213
- 3' UTR reporter interaction score (BRCA2): 0.0314
- 3' UTR reporter interaction score (FBXW7): 0.832
- 3' UTR reporter interaction score (MYC): -0.43
- 3' UTR reporter interaction score (PHOX2B): 1.22
- 3' UTR reporter interaction score (MYCN): -0.731
- 3' UTR reporter interaction score (MYB): -0.402

Sequence: UUGCAUAGUCACAAAAGUGA
- 3' UTR reporter interaction score (MYT1L): -0.0799
- 3' UTR reporter interaction score (NOTCH1): 0.184
- 3' UTR reporter interaction score (HRAS): -0.0974
- 3' UTR reporter interaction score (RB1): -0.308
- 3' UTR reporter interaction score (ZEB2): -2.2
- 3' UTR reporter interaction score (PHF6): -0.0278
- 3' UTR reporter interaction score (TP53): 0.904
- 3' UTR reporter interaction score (EZH2): 0.179
- 3' UTR reporter interaction score (BRCA2): -0.381
- 3' UTR reporter interaction score (FBXW7): 1.37
- 3' UTR reporter interaction score (MYC): 0.279
- 3' UTR reporter interaction score (PHOX2B): 0.0715
- 3' UTR reporter interaction score (MYCN): 0.143
- 3' UTR reporter interaction score (MYB): -1.85

Sequence: AGACCUGGCCCAGACCUCAGC
- 3' UTR reporter interaction score (MYT1L): -3.18
- 3' UTR reporter interaction score (NOTCH1): -0.568
- 3' UTR reporter interaction score (HRAS): -0.381
- 3' UTR reporter interaction score (RB1): -2.21
- 3' UTR reporter interaction score (ZEB2): -0.702
- 3' UTR reporter interaction score (PHF6): -0.218
- 3' UTR reporter interaction score (TP53): 0.562
- 3' UTR reporter interaction score (EZH2): 0.316
- 3' UTR reporter interaction score (BRCA2): -0.79
- 3' UTR reporter interaction score (FBXW7): 0.099
- 3' UTR reporter interaction score (MYC): 0.0891
- 3' UTR reporter interaction score (PHOX2B): -0.381
- 3' UTR reporter interaction score (MYCN): 0.863
- 3' UTR reporter interaction score (MYB): 0.0206

Sequence: AAGUGCUGUCAUAGCUGAGGUC
- 3' UTR reporter interaction score (MYT1L): -0.819
- 3' UTR reporter interaction score (NOTCH1): -0.478
- 3' UTR reporter interaction score (HRAS): 0
- 3' UTR reporter interaction score (RB1): 1.65
- 3' UTR reporter interaction score (ZEB2): 1.38
- 3' UTR reporter interaction score (PHF6): 0.918
- 3' UTR reporter interaction score (TP53): 0.0875
- 3' UTR reporter interaction score (EZH2): -0.608
- 3' UTR reporter interaction score (BRCA2): 0.528
- 3' UTR reporter interaction score (FBXW7): 0.564
- 3' UTR reporter interaction score (MYC): 0.212
- 3' UTR reporter interaction score (PHOX2B): -0.113
- 3' UTR reporter interaction score (MYCN): 1.22
- 3' UTR reporter interaction score (MYB): -0.62

Sequence: AUCAUAGAGGAAAAUCCAUGUU
- 3' UTR reporter interaction score (MYT1L): -0.0506
- 3' UTR reporter interaction score (NOTCH1): 1.28
- 3' UTR reporter interaction score (HRAS): -0.664
- 3' UTR reporter interaction score (RB1): 0.00936
- 3' UTR reporter interaction score (ZEB2): -1.1
- 3' UTR reporter interaction score (PHF6): -0.0407
- 3' UTR reporter interaction score (TP53): 0.636
- 3' UTR reporter interaction score (EZH2): 0.791
- 3' UTR reporter interaction score (BRCA2): -0.0049
- 3' UTR reporter interaction score (FBXW7): -0.575
- 3' UTR reporter interaction score (MYC): -0.229
- 3' UTR reporter interaction score (PHOX2B): 0.462
- 3' UTR reporter interaction score (MYCN): 0.0452
- 3' UTR reporter interaction score (MYB): 0.366

Sequence: UAGGUUAUCCGUGUUGCCUUCG
- 3' UTR reporter interaction score (MYT1L): -0.174
- 3' UTR reporter interaction score (NOTCH1): 0.0096
- 3' UTR reporter interaction score (HRAS): 0.327
- 3' UTR reporter interaction score (RB1): -0.0884
- 3' UTR reporter interaction score (ZEB2): 0.258
- 3' UTR reporter interaction score (PHF6): 1.26
- 3' UTR reporter interaction score (TP53): -0.804
- 3' UTR reporter interaction score (EZH2): 0.345
- 3' UTR reporter interaction score (BRCA2): -0.557
- 3' UTR reporter interaction score (FBXW7): -0.104
- 3' UTR reporter interaction score (MYC): -0.452
- 3' UTR reporter interaction score (PHOX2B): 0.827
- 3' UTR reporter interaction score (MYCN): 0.616
- 3' UTR reporter interaction score (MYB): 1.02
